# Reference: US12714675B2, “Solid dosage form production” (UNIVERSITY OF LANCASHIRE, priority 2016, dated 2026)
# Experiment: optimization of highly concentrated dipyridamole solution for liquid capsule feed (solubility in solvent systems)
# Type: physicochemical
# Details: drug solution in PEG 400
# Experimental: A model drug, dipyridamole, was chosen to test the suitability of this system to provide immediate and extended drug release. Its fluoresce colour and ease of detection allows focusing on the development process. It was decided that the drug solution PEG 400 (10 mg/ml) is the maximum concentration that can be readily prepared.
smiles,measurement,value
OCCN(CCO)c1nc(N2CCCCC2)c2nc(N(CCO)CCO)nc(N3CCCCC3)c2n1 [dipyridamole],maximum concentration that can be readily prepared,10 mg/mL
